Patent US20120064514A1, “HIV-1-C […]” (Virco BVBA, priority 2009, published 2012)
Entries after “also recorded” stand apart in the source; their conditions may differ.

How the values were obtained:
[1] = tested on: HIV-1-C recombinant virus stocks (pGEM-HIV-1-C-Δgprt-BstEII backbone); test: Antiviral drug susceptibility testing of recombinant virus stocks, subtype C GPRT amplicon in HIV-1 subtype C backbone, MT4-eGFP cells; assay type: cell-based; conditions: for effect of RAM M184V in RT on FC: subtype C backbone, Clone 3 of Sample 3, FC with vs without 184V, FIG. 4; for ratio FCsubtype B/FCsubtype C (fold change in IC50 vs wild-type): same subtype C GPRT amplicons in subtype B vs subtype C backbone, FIG. 3-E, ratio significantly different from 1 (p<0.05) for the listed drugs
Excerpt: (§1) An HIV subtype C backbone was designed in silico. The complete genome (12 721 bp) was divided into 4 fragments which were chemically synthesized and subsequently joined together by traditional subcloning. Gag-protease-reverse-transcriptase (GPRT) fragments from 8 patient samples infected with subtype C HIV-1 were RT-PCR amplified. The 1.7 kb PCR fragment was cloned into the HIV-1-C backbone (deleted for GPRT) using In-Fusion reagents. Full-genome clones (N ranging from 1 to 5 per patient sample) were transfected in MT4-eGFP cells where cyto-pathogenic effect (CPE), p24 and Viral Load (VL) were monitored. The resulting HIV-1-C recombinant virus stocks (RVSs) were added to MT4-eGFP cells in the presence of serial dilutions of antiretroviral drugs (PI, NNRTI, N(t)RTI) to determine the fold-change in IC50 compared to the IC50 of wild-type HIV-1 virus. Additionally, viral RNA was extracted from the HIV-1-C RVSs and submitted to an RT-PCR. The resulting GPRT amplicons were recombined into a subtype B backbone and phenotyped as described above, allowing the comparison of GPRT resistance profiles in the two backbones.
(§2) 5. Antiviral Drug Susceptibility Testing of Virus Stocks Generated with the pGEM-HIV-1-C-Δgprt-BstEII vs. the pGEM-HXB2-Δgprt-BstEII Backbone but Carrying Identical GPRT Fragments.
(§3) Fold-change values were calculated by dividing the IC50 values of the virus stocks harboring Resistance Associated Mutations (RAMs) by the IC50 values of the corresponding backbone with wild-type amplicon.

[2] = tested on: recombinant virus stocks with subtype C GPRT in pGEM-HXB2-Δgprt-BstEII (subtype B) backbone; test: Antiviral drug susceptibility testing of recombinant virus stocks, subtype C GPRT amplicon in HIV-1 subtype B backbone, MT4-eGFP cells; assay type: cell-based; conditions: Clone 3 of Sample 3, FC with vs without 184V, FIG. 4
Excerpt: as §1
In contrast to the In-Fusion strategy for the subtype C backbone, a homologous recombination event strategy was used for the subtype B backbone to generate infectious virus. Here the BstEII-linearized pGEM-HXB2Δgprt-BstEII backbone was co-transfected with the 1.8 kb GPRT fragment in an MT4 cell line, resulting in a full-genome infectious virus.
as §2, §3

Compound	effect of RAM M184V in RT on FC [1]	effect of RAM M184V in RT on FC [2]	ratio FCsubtype B/FCsubtype C (fold change in IC50 vs wild-type) [1]
Nc1nc(NC2CC2)c2ncn([C@H]3C=C[C@@H](CO)C3)c2n1 [ABC]	not significantly affected	not significantly affected	
Cc1cn([C@H]2C[C@H](N=[N+]=[N-])[C@@H](CO)O2)c(=O)[nH]c1=O [AZT]	re-sensitizing effects; also recorded: decreases the FC	re-sensitizing effects; also recorded: decreases the FC	
Cc1cc(C#N)cc(C)c1Oc1nc(Nc2ccc(C#N)cc2)nc(N)c1Br [ETR, etravirine]			0.67
Nc1nc(=O)n([C@@H]2CS[C@H](CO)O2)cc1F [FTC, emtricitabine]	increase in FC	increase in FC	0.50
CC(C)OC(=O)OCOP(=O)(CO[C@H](C)Cn1cnc2c(N)ncnc21)OCOC(=O)OC(C)C.O=C(O)/C=C/C(=O)O [TDF]	decreases the FC	decreases the FC	
Cc1cn([C@H]2C=C[C@@H](CO)O2)c(=O)[nH]c1=O [d4T]	decreases the FC	decreases the FC	
CC(C)CN(C[C@@H](O)[C@H](Cc1ccccc1)NC(=O)O[C@H]1CO[C@H]2OCC[C@H]21)S(=O)(=O)c1ccc(N)cc1 [darunavir]			1.78
O=c1[nH]cnc2c1ncn2[C@H]1CC[C@@H](CO)O1 [ddI, didanosine]	not significantly affected	not significantly affected	
Cc1cccc(C)c1OCC(=O)N[C@@H](Cc1ccccc1)[C@@H](O)C[C@H](Cc1ccccc1)NC(=O)[C@H](C(C)C)N1CCCNC1=O [lopinavir]			1.86
Cc1ccnc2c1NC(=O)c1cccnc1N2C1CC1 [nevirapine]			1.61
